Values quoted from earlier work as cited in publication PMC2110886 (PLoS ONE, 2007).

Tested on: Seasonal influenza strains
Design: method as in PMID 15709056
Conditions: in children; cited from earlier work

Structure (SMILES): CCOC(=O)C1=C[C@@H](OC(CC)CC)[C@H](NC(C)=O)[C@@H](N)C1 [Oseltamivir, oseltamivir, reference compound]
- rate of resistance to oseltamivir: 4%
